Measured values: US20240390379A1, “EZH2 Inhibition in Pancreatic Cancer” (University of Massachusetts, priority 2021, published 2024)

Test system: KPC1 PDAC cells
Test: qRT-PCR of senescence and SASP gene expression in KPC1 PDAC cells with EZH2 methyltransferase inhibitors
Type: cell-based, mouse
Details: GSK126 1 μM or tazemetostat 5 μM with trametinib 25 nM and palbociclib 500 nM, 8 days
Method: P values in b-c were calculated using two-tailed, unpaired Student's t-test.
Trametinib (S2673), palbociclib (S1116), and GSK126 (S7061) were purchased from Selleck chemicals for in vitro studies. Drugs for in vitro studies were dissolved in DMSO (vehicle) to yield 10 mM stock solutions and stored at −80° C. For in vitro studies, growth media with or without drugs was changed every 2-3 days.
Total RNA was isolated using the RNeasy Mini Kit (Qiagen), and complementary DNA (cDNA) was obtained using the TaqMan reverse transcription reagents (Applied Biosystems).
Flow cytometry was performed on a BD LSR II, and data were analyzed using FlowJo (TreeStar).

Compound: CC[C@H](C)n1cc(C)c2c(C(=O)NCc3c(C)cc(C)[nH]c3=O)cc(-c3ccc(N4CCNCC4)nc3)cc21 [GSK126]
- Pro-inflammatory SASP factors and immunomodulatory cell surface proteins: induced pro-inflammatory SASP factors and immunomodulatory cell surface proteins
- Senescence-associated cell cycle arrest: without impacting senescence-associated cell cycle arrest
